For orientation: EC50 means the concentration giving half of the maximal effect.

The experiment has as its system RSV A2. Nature of the experiment: RSV inhibition (cytopathic effect inhibition) using Viral ToxGlo assay in HEp-2 cells. Format: cell-based. The settings on record: human respiratory syncytial virus, RSV A2, MOI 0.5, HEp-2 cells, 72 h p.i. How it is done:
Protocol for Screening Antiviral Compounds for RSV Inhibition and Cytotoxicity Using Viral ToxGlo Assay
HEp-2 cells were maintained in Eagle's minimum essential medium (EMEM) with Earle's BSS adjusted to contain 2 mM L-glutamine, 10% fetal bovine serum, 100 U/ml penicillin and 100 μg/ml streptomycin. For the purposes of the screening assay they were grown to 90% confluency, trypsinized and recovered. The trypsin was neutralised with cell culture media and cells were centrifuged at 150×g for 5 minutes before discarding the supernatant and resuspending cell pellet in assay media (EMEM with Earle's BSS adjusted to contain 2 mM L-glutamine, 2% fetal bovine serum and 100 U/ml penicillin and 100 μg/ml streptomycin). The cells were seeded into white clear-bottomed cell culture plates at a density of 1.5×10^4 cells/well in 50 μl and 4×10^3 cells/well in 25 μl for 96 well plates and 384 well plates respectively. For the media/background control column assay media only was added. Cell plates were placed in a humid chamber and incubated overnight at 37° C./5% CO2. After overnight incubation cells were checked for confluency and healthy appearance.
Test articles were made up at 10× test concentration in a maximum DMSO concentration of 10% (final assay concentration maximal 1% DMSO) and added to the cell plates in volumes of 10 μl for 96 well plates and 5 μl for 384 well plates. For cell control and virus control wells the test article solvent only was added. Virus or assay media for cytotoxicity test wells and media/cell control wells was added immediately after test articles at an MOI of 0.5, 40 or 20 μl for 96 and 384 well plates respectively. Virus suspension was prepared by thawing RSV A2 frozen stocks and diluting to the required concentration of plaque forming units in assay media on ice.
Cell plates were further incubated inside a humid chamber for 72 h p.i at 37° C./5% CO2. After the incubation period cells were observed under the microscope to check for characteristic cytopathic effect in virus control wells and healthy cells in the cell control wells. After plates were adjusted to room temperature 20/40 μl Viral ToxGlo (Promega) was added to each well of the 384/96 well cell plates. Plates were incubated at room temperature, protected from light on a plate rocker for 20 minutes before measuring the luminescence on a spectrophotometer (Biotek Synergy HTX).
RSV inhibition was calculated as percentage of cytopathic effect inhibition relative to the virus control and cytotoxicity as percentage of cell survival relative to cell control wells. This allowed EC50 values to be calculated for each test article where a virus inhibition or cytotoxic dose response was identified.
A general note: Cytopathic effects are the visible damage that an infection or toxin causes in cultured cells.
Take `NC(=O)c1cccc(Nc2ccc(OCc3ccccn3)cc2C2CC2)c1` [Compound 84, 3-((2-cyclopropyl-4-(pyridin-2-ylmethoxy)phenyl)amino)benzamide]: the EC50 was found to be 637 nM.

For `c1ccc(COc2ccc(Nc3cccc(OCCCC4CCCCC4)c3)c(N3CCOCC3)c2)cc1` [Compound 114, 4-(benzyloxy)-N-[3-(3-cyclohexylpropoxy)phenyl]-2-(morpholin-4-yl)aniline], the EC50 was 71 nM.

Consider `O=C(CCC1CCCCC1)Nc1cc(Nc2ccc(OCc3ccc(F)cc3)cc2C(F)(F)F)ccc1F` [Compound 125, 3-cyclohexyl-N-[2-fluoro-5-({4-[(4-fluorophenyl)methoxy]-2-(trifluoromethyl)phenyl}amino)phenyl]propanamide], for which the EC50 amounted to 130 nM.

With `CC(C)(C)c1cc(OCc2ccccc2)ccc1Nc1ccccc1C(=O)NCCC1CCCCC1` [Compound 101, 2-{[4-(benzyloxy)-2-tert-butylphenyl]amino}-N-(2-cyclohexylethyl)benzamide], the EC50 stood at 21 nM.

As to `Cc1cc(OCc2ccccc2)ccc1Nc1ccccc1C(=O)NCCC1CCCCC1` [Compound 139, 2-{[4-(benzyloxy)-2-methylphenyl]amino}-N-(2-cyclohexylethyl)benzamide], the concentration for a half-maximal effect (EC50) is 329 nM.

Consider `CC(C)CCNC(=O)c1ccccc1Nc1ccc(OCc2ccccn2)cc1C1CC1` [Compound 123, 2-({2-cyclopropyl-4-[(pyridin-2-yl)methoxy]phenyl}amino)-N-(3-methylbutyl)benzamide], for which the EC50 was found to be 120 nM.

As to `CC(C)(C)c1cc(OCc2ccccc2)ccc1Nc1cccc(NC(=O)CCC2CCCCC2)c1` [Compound 91, N-(3-{[4-(benzyloxy)-2-tert-butylphenyl]amino}phenyl)-3-cyclohexylpropanamide], the concentration giving a half-maximal response (EC50) was found to be 2 nM.

On to `O=C(CCC1CCCCC1)Nc1cccc(Nc2ccc(OCc3ccccn3)cc2C2CC2)c1` [Compound 80, (3-(cyclohexyl)propanamide), N-[3-([2-cyclopropyl-4-(pyridin-2-ylmethoxy)phenyl]amino)phenyl]-], for which the 50% effective concentration (EC50) came to 21 nM.

Take `O=C(CCC1CCCCC1)Nc1cccc(Nc2ccc(OCc3ccc(F)cc3)cc2C(F)(F)F)c1` [Compound 99, 3-cyclohexyl-N-[3-({4-[(4-fluorophenyl)methoxy]-2-(trifluoromethyl)phenyl}amino)phenyl]propanamide]: the EC50 came to 13 nM.

For `O=C(NCCCC1CCCCC1)c1ccccc1Nc1ccc(OCc2ccccc2)cc1C1CC1` [Compound 103, 2-{[4-(benzyloxy)-2-cyclopropylphenyl]amino}-N-(3-cyclohexylpropyl)benzamide], the EC50 stood at 24 nM.

On to `O=C(NCCC1CCCCC1)c1cccc(Nc2ccc(OCc3cccnc3)cc2C2CC2)c1` [Compound 85, N-(2-cyclohexylethyl)-3-((2-cyclopropyl-4-(pyridin-3-ylmethoxy)phenyl)amino)benzamide], for which the EC50 came to 8 nM.

Take `Cc1cc(OCc2ccccn2)ccc1Nc1cccc(C(=O)NCCCC(C)C)c1` [Compound 72, 3-((2-methyl-4-(pyridin-2-ylmethoxy)phenyl)amino)-N-(4-methylpentyl)benzamide]: the EC50 is 158 nM.

For `c1ccc(COc2ccc(Nc3cccc(SCCCC4CCCCC4)c3)c(C3CC3)c2)cc1` [Compound 149, 4-(benzyloxy)-N-{3-[(3-cyclohexylpropyl)sulfanyl]phenyl}-2-cyclopropylaniline], the EC50 was found to be 555 nM.

For the compound `O=P(O)(O)Oc1cccc(Nc2ccc(OCc3ccccn3)cc2C2CC2)c1` [Compound 133, [3-({2-cyclopropyl-4-[(pyridin-2-yl)methoxy]phenyl}amino)phenoxy]phosphonic acid], the EC50 stood at 230 nM.

Regarding `Cc1cc(OCc2cccnn2)ccc1Nc1cccc(OCCCC2CCCCC2)c1` [Compound 148, N-[3-(3-cyclohexylpropoxy)phenyl]-2-methyl-4-[(pyridazin-3-yl)methoxy]aniline], the EC50 is 532 nM.

With `O=S(=O)(CCCC1CCCCC1)c1ccccc1Nc1ccc(OCc2ccccc2)cc1C1CC1` [Compound 122, 4-(benzyloxy)-N-[2-(3-cyclohexylpropanesulfonyl)phenyl]-2-cyclopropylaniline], the EC50 came out at 116 nM.

Regarding `c1ccc(COc2ccc(Nc3cccc(NCCCC4CCCCC4)c3)c(C3CC3)c2)cc1` [Compound 95, N1-[4-(benzyloxy)-2-cyclopropylphenyl]-N3-(3-cyclohexylpropyl)benzene-1,3-diamine], the EC50 worked out at 8 nM.

Turning to `O=C(NCCC1CCCCC1)c1ccnc(Nc2ccc(OCc3ccccn3)cc2C2CC2)c1` [Compound 90, N-(2-cyclohexylethyl)-2-((2-cyclopropyl-4-(pyridin-2-ylmethoxy)phenyl)amino)isonicotinamide], the EC50 was 92 nM.

In the case of `CC(C)(C)OC(=O)N1CCN(C(=O)c2cccc(Nc3ccc(OCc4ccccn4)cc3C3CC3)c2)CC1` [Compound 134, tert-butyl 4-[3-({2-cyclopropyl-4-[(pyridin-2-yl)methoxy]phenyl}amino)benzoyl]piperazine-1-carboxylate], the EC50 amounted to 281 nM.

`N#CC1(NC(=O)c2ccccc2Nc2ccc(OCc3ccccn3)cc2C2CC2)CC1` [Compound 136, N-(1-cyanocyclopropyl)-2-({2-cyclopropyl-4-[(pyridin-2-yl)methoxy]phenyl}amino)benzamide]: the EC50 worked out at 295 nM.

For `O=C(NCCC1CCCCC1)Nc1cccc(Nc2ccc(OCc3ccccn3)cc2C2CC2)c1` [Compound 96, 1-(2-cyclohexylethyl)-3-[3-({2-cyclopropyl-4-[(pyridin-2-yl)methoxy]phenyl}amino)phenyl]urea], the half-maximal effective concentration (EC50) was found to be 10 nM.

For the compound `O=C(NCCC1CCCC1)c1cccc(Nc2ccc(OCc3ccncc3)cc2C2CC2)c1` [Compound 89, N-(2-cyclopentylethyl)-3-((2-cyclopropyl-4-(pyridin-4-ylmethoxy)phenyl)amino)benzamide], the EC50 was 140 nM.

Turning to `O=S(=O)(NCCC1CCCCC1)c1cccc(Nc2ccc(OCc3ccccn3)cc2C2CC2)c1` [Compound 79, N-(2-(cyclohexyl)ethyl)-3-((2-cyclopropyl-4-(pyridin-2-ylmethoxy)phenyl)amino)benzenesulfonamide], the EC50 is 33 nM.

`Cc1c(Nc2ccc(OCc3ccccn3)cc2C2CC2)cccc1OP(=O)(O)O` [Compound 109, [3-({2-cyclopropyl-4-[(pyridin-2-yl)methoxy]phenyl}amino)-2-methylphenoxy]phosphonic acid]: the concentration giving a half-maximal response (EC50) is 48 nM.

As to `c1ccc(COc2ccc(Nc3cccc(OCCCC4CCCCC4)c3)c(C3CC3)c2)nc1` [Compound 83, 3-(3-cyclohexylpropoxy)-N-(2-cyclopropyl-4-(pyridin-2-ylmethoxy)phenyl)aniline], the EC50 came out at 9 nM.

On to `C[Si](C)(C)Oc1cccc(Nc2ccc(OCc3ccccn3)cc2C2CC2)c1` [Compound 141, 2-cyclopropyl-4-[(pyridin-2-yl)methoxy]-N-{3-[(trimethylsilyl)oxy]phenyl}aniline], for which the EC50 was found to be 352 nM.

Regarding `O=C(NCCC1CCCCC1)c1ccccc1Nc1ccc(OCc2ccccc2)cc1C1CC1` [Compound 115, 2-{[4-(benzyloxy)-2-cyclopropylphenyl]amino}-N-(2-cyclohexylethyl)benzamide], the 50% effective concentration (EC50) came to 83 nM.

Regarding `O=C(NCCC1CCCCC1)c1cccc(Nc2ccc(OCc3ccccn3)cc2C2CC2)c1` [Compound 76, N-(2-(cyclohexyl)ethyl)-3-((2-cyclopropyl-4-(pyridin-2-ylmethoxy)phenyl)amino)benzamide], the EC50 worked out at 14 nM.

`O=C(CCC1CCCCC1)Nc1cccc(Nc2ccc(OCc3ccccc3)cc2C2CCCC2)c1` [Compound 93, N-(3-{[4-(benzyloxy)-2-cyclopentylphenyl]amino}phenyl)-3-cyclohexylpropanamide]: the EC50 came to 4 nM.

On to `O=C(NCCC1CCCCC1)c1cc(Nc2ccc(OCc3ccccn3)cc2C2CC2)ccn1` [Compound 117, N-(2-cyclohexylethyl)-4-({2-cyclopropyl-4-[(pyridin-2-yl)methoxy]phenyl}amino)pyridine-2-carboxamide], for which the EC50 came out at 98 nM.

Take `O=C(NCCC1CCCCC1)c1cncc(Nc2ccc(OCc3ccccn3)cc2C2CC2)c1` [Compound 88, N-(2-cyclohexylethyl)-5-((2-cyclopropyl-4-(pyridin-2-ylmethoxy)phenyl)amino)nicotinamide]: the EC50 came to 461 nM.

As for `O=C(NCCC1CCCCC1)c1cccc(Nc2ccc(OCc3ccccn3)cc2C2CC2)n1` [Compound 86, N-(2-cyclohexylethyl)-6-((2-cyclopropyl-4-(pyridin-2-ylmethoxy)phenyl)amino)picolinamide], the concentration for a half-maximal effect (EC50) was determined as 567 nM.
